US20220339143A1, “TAK-925 FOR USE IN TREATING NARCOLEPSY” (Takeda Pharmaceutical Company Limited, priority 2019, published 2022)
Read-outs that look alike come from different tables or passages of the source.

Assay: Single dose PK in healthy subjects (Cohorts 1, 2, S1 and S2), plasma
Assay type: in vivo, human
Settings: human, plasma
Procedure: This study investigates (i) the safety and tolerability of Compound A (methyl (2R,3S)-3-((methylsulfonyl)amino)-2-(((cis-4-phenylcyclohexyl)oxy)methyl)piperidine-1-carboxylate) when a single dose given as a 9 hour continuous IV infusion is administered to healthy adults, healthy elderly subjects and patients with narcolepsy type 1 (NT1); (ii) the pharmacokinetics of Compound A when a single dose given as a 9 hour continuous IV infusion is administered to healthy adults, healthy elderly subjects and patients with narcolepsy type 1; and (iii) the pharmacodynamics (PD) effects of Compound A, primarily by evaluation of the sleep latency on MWT when a single dose given as a 9 hour continuous IV infusion is administered to patients with narcolepsy type 1.
Pharmacokinetics: Concentrations of Compound A in plasma, and CSF, and pharmacokinetics parameters.
On average, the time to reach the plateau appeared to be approximately 3 to 4 hours after the start of infusion. […] After switching off the IV infusion, Compound A plasma concentrations declined rapidly and in a biphasic manner with a mean terminal disposition phase t1/2z ranging approximately from 3.4 to 5.1 hours across all doses. […] Table 5 provides a summary of plasma concentrations of Compound A after a single IV infusion in healthy subjects. Table 6 provides a summary of pharmacokinetic parameters of Compound A after a single IV infusion in healthy subjects.

[1] = intravenous, 180 mg, read-out: Plasma concentration, Maximum
[2] = intravenous, 180 mg, read-out: Plasma concentration, Mean
[3] = intravenous, 180 mg, read-out: Plasma concentration, Median
[4] = intravenous, 180 mg, read-out: Plasma concentration, Minimum
[5] = intravenous, 180 mg, read-out: Plasma concentration, Q1
[6] = intravenous, 180 mg, read-out: Plasma concentration, Q3
[7] = intravenous, 240 mg, read-out: Plasma concentration, Mean
[8] = intravenous, 240 mg, read-out: Plasma concentration, Minimum
[9] = intravenous, 240 mg, read-out: Plasma concentration, Q1

## COC(=O)N1CCC[C@H](NS(C)(=O)=O)[C@@H]1CO[C@H]1CC[C@@H](c2ccccc2)CC1 [Compound A, methyl (2R,3S)-3-((methylsulfonyl)amino)-2-(((cis-4-phenylcyclohexyl)oxy)methyl)piperidine-1-carboxylate]
[1]
  concentration at 1 h: 265 ng/mL
  concentration at 1.5 h: 304 ng/mL
  concentration at 2 h: 341 ng/mL
  concentration at 3 h: 355 ng/mL
  concentration at 4 h: 361 ng/mL
  concentration at 6 h: 322 ng/mL
  concentration at 8 h: 337 ng/mL
[2]
  concentration at 1 h: 216 ng/mL
  concentration at 1.5 h: 255 ng/mL
  concentration at 2 h: 294 ng/mL
  concentration at 3 h: 315 ng/mL
  concentration at 4 hr: 328 ng/mL
  concentration at 6 hr: 292 ng/mL
  concentration at 8 h: 300 ng/mL
[3]
  concentration at 1 hr: 215 ng/mL
  concentration at 1.5 hr: 242 ng/mL
  concentration at 2 hr: 292 ng/mL
  concentration at 3 hr: 314 ng/mL
  concentration at 4 hr: 325 ng/mL
  concentration at 6 hr: 292 ng/mL
  concentration at 8 hr: 292 ng/mL
[4]
  concentration at 1 hr: 173 ng/mL
  concentration at 1.5 hr: 224 ng/mL
  concentration at 2 hr: 251 ng/mL
  concentration at 3 hr: 276 ng/mL
  concentration at 4 hr: 293 ng/mL
  concentration at 6 hr: 252 ng/mL
  concentration at 8 hr: 275 ng/mL
[5]
  concentration at 1 hr: 201 ng/mL
  concentration at 1.5 hr: 228 ng/mL
  concentration at 2 hr: 271 ng/mL
  concentration at 3 hr: 307 ng/mL
  concentration at 4 hr: 304 ng/mL
  concentration at 6 hr: 285 ng/mL
  concentration at 8 hr: 277 ng/mL
[6]
  concentration at 1 h: 229 ng/mL
  concentration at 1.5 h: 290 ng/mL
  concentration at 2 h: 320 ng/mL
  concentration at 3 h: 324 ng/mL
  concentration at 4 h: 358 ng/mL
  concentration at 6 h: 311 ng/mL
  concentration at 8 hr: 330 ng/mL
intravenous, 180 mg, 9 hr, read-out: Plasma concentration, Maximum
  concentration at 9 h: 364 ng/mL
intravenous, 180 mg, 9 hr, read-out: Plasma concentration, Mean
  concentration at 9 h: 325 ng/mL
intravenous, 180 mg, 9 hr, read-out: Plasma concentration, Median
  concentration at 9 hr: 316 ng/mL
intravenous, 180 mg, 9 hr, read-out: Plasma concentration, Minimum
  concentration at 9 hr: 285 ng/mL
intravenous, 180 mg, 9 hr, read-out: Plasma concentration, Q1
  concentration at 9 hr: 311 ng/mL
intravenous, 180 mg, 9 hr, read-out: Plasma concentration, Q3
  concentration at 9 hr: 358 ng/mL
intravenous, 240 mg, 0.5 hr, read-out: Plasma concentration, Mean
  concentration at 0.5 h: 292 ng/mL
intravenous, 240 mg, 0.5 hr, read-out: Plasma concentration, Minimum
  concentration at 0.5 hr: 228 ng/mL
intravenous, 240 mg, 0.5 hr, read-out: Plasma concentration, Q1
  concentration at 0.5 hr: 230 ng/mL
[7]
  concentration at 1 h: 345 ng/mL
  concentration at 1.5 h: 388 ng/mL
  concentration at 2 h: 403 ng/mL
  concentration at 3 h: 456 ng/mL
  concentration at 4 h: 493 ng/mL
  concentration at 6 h: 428 ng/mL
  concentration at 8 h: 474 ng/mL
[8]
  concentration at 1 hr: 265 ng/mL
  concentration at 1.5 hr: 315 ng/mL
  concentration at 2 hr: 337 ng/mL
  concentration at 3 hr: 393 ng/mL
  concentration at 4 hr: 388 ng/mL
  concentration at 6 hr: 335 ng/mL
  concentration at 8 h: 393 ng/mL
[9]
  concentration at 1 hr: 286 ng/mL
  concentration at 1.5 hr: 333 ng/mL
  concentration at 2 hr: 349 ng/mL
  concentration at 3 hr: 400 ng/mL
  concentration at 4 hr: 423 ng/mL
  concentration at 6 hr: 366 ng/mL
  concentration at 8 hr: 409 ng/mL
intravenous, 240 mg, 9 hr, read-out: Plasma concentration, Mean
  concentration at 9 h: 497 ng/mL
intravenous, 240 mg, 9 hr, read-out: Plasma concentration, Minimum
  concentration at 9 hr: 417 ng/mL
intravenous, 240 mg, 9 hr, read-out: Plasma concentration, Q1
  concentration at 9 hr: 452 ng/mL
iv, 7 mg, 7 mg single IV infusion, healthy subjects, read-out: AUC24 Geo Mean
  AUC: 140 ng·h/mL
iv, 7 mg, 7 mg single IV infusion, healthy subjects, read-out: AUC24 Mean
  AUC: 142 ng·h/mL
iv, 7 mg, 7 mg single IV infusion, healthy subjects, read-out: AUC24 Median
  AUC: 142 ng·h/mL
iv, 7 mg, 7 mg single IV infusion, healthy subjects, read-out: AUCinf Geo Mean
  AUC(0-inf): 142 ng·h/mL
iv, 7 mg, 7 mg single IV infusion, healthy subjects, read-out: AUCinf Mean
  AUC(0-inf): 143 ng·h/mL
iv, 7 mg, 7 mg single IV infusion, healthy subjects, read-out: AUCinf Median
  AUC(0-inf): 146 ng·h/mL
iv, 7 mg, 7 mg single IV infusion, healthy subjects, read-out: AUClast Geo Mean
  AUC(0-t): 138 ng·h/mL
iv, 7 mg, 7 mg single IV infusion, healthy subjects, read-out: AUClast Mean
  AUC(0-t): 140 ng·h/mL
iv, 7 mg, 7 mg single IV infusion, healthy subjects, read-out: AUClast Median
  AUC(0-t): 142 ng·h/mL
iv, 7 mg, 7 mg single IV infusion, healthy subjects, read-out: CL Mean (converted)
  clearance: 833 mL/min
iv, 7 mg, 7 mg single IV infusion, healthy subjects, read-out: Ceoi Geo Mean
  concentration at 9 h: 13.4 ng/mL
iv, 7 mg, 7 mg single IV infusion, healthy subjects, read-out: Ceoi Mean
  concentration at 9 h: 13.5 ng/mL
iv, 7 mg, 7 mg single IV infusion, healthy subjects, read-out: Ceoi Median
  concentration at 9 h: 13.9 ng/mL
iv, 7 mg, 7 mg single IV infusion, healthy subjects, read-out: Cmax Geo Mean
  Cmax: 16.7 ng/mL
iv, 7 mg, 7 mg single IV infusion, healthy subjects, read-out: Cmax Mean
  Cmax: 16.9 ng/mL
iv, 7 mg, 7 mg single IV infusion, healthy subjects, read-out: Cmax Median
  Cmax: 16.5 ng/mL
iv, 7 mg, 7 mg single IV infusion, healthy subjects, read-out: Vss Mean
  Vd: 82.9 L
iv, 7 mg, 7 mg single IV infusion, healthy subjects, read-out: Vz Mean
  Vd: 292 L
iv, 7 mg, 7 mg single IV infusion, healthy subjects, read-out: Vz Median
  Vd: 303 L
iv, 7 mg, 7 mg single IV infusion, healthy subjects, read-out: tmax Mean
  Tmax: 3 h
iv, 7 mg, 7 mg single IV infusion, healthy subjects, read-out: tmax Median
  Tmax: 3 h
iv, 14 mg, 14 mg single IV infusion, healthy subjects, read-out: AUC24 Geo Mean
  AUC: 323 ng·h/mL
iv, 14 mg, 14 mg single IV infusion, healthy subjects, read-out: AUC24 Mean
  AUC: 326 ng·h/mL
iv, 14 mg, 14 mg single IV infusion, healthy subjects, read-out: AUC24 Median
  AUC: 322 ng·h/mL
iv, 14 mg, 14 mg single IV infusion, healthy subjects, read-out: AUCinf Geo Mean
  AUC(0-inf): 328 ng·h/mL
iv, 14 mg, 14 mg single IV infusion, healthy subjects, read-out: AUCinf Mean
  AUC(0-inf): 331 ng·h/mL
